Columns and labels:
[1] = tested on: ESR1 positive, node-negative breast cancer; assay: Recurrence Score validation trial, patients treated with TAM alone in NSABP Study B-14: distant recurrence at 10 years; format: in vivo, human
Procedure: To test the clinical validity of this Recurrence Score test and algorithm, a blinded clinical trial with prospectively identified endpoints was carried out. This validation trial focused on patients treated with TAM alone in the randomized and registration arms of the National Surgical Adjuvant Breast and Bowel Project (NSABP) Study B-14 clinical trial population (Fisher B, Costantino J P, Redmond C K, et al: Endometrial cancer in TAM-treated breast cancer patients: Findings from the National Surgical Adjuvant Breast and Bowel Project (NSABP) B-14. J Natl Cancer Inst 86:527-537 (1994)). Genomic Health, Inc. and the NSABP carried out the 21 gene RT-PCR assay on 668 breast cancer tissue specimens derived from these patients and calculated a Recurrence Score for each patient.
Pre-specified cut-off points of Recurrence Score classified patients into one of three categories: low risk, intermediate risk, and high risk of distant disease recurrence. The proportion of the 668 patients categorized as low, intermediate, and high risk by the RT-PCR assay were 51%, 23%, and 27%, respectively. […] In a multivariate Cox model relating distant recurrence to Recurrence Score, age, and tumor size, Recurrence Score provides significant (p<0.001) predictive power that goes beyond age and tumor size. This study validated the Recurrence Score as a powerful predictor of distant recurrence in patients without involved nodes who have tumors that are ESR1 positive and treated with TAM (Paik et al. Breast Cancer Research and Treatment 82, Supplement 1: page S10, 2003 (Abstract 16).

[2] = tested on: ER-positive invasive breast cancer with negative axillary lymph nodes; assay: NSABP B-14 placebo and TAM arms combined: Cox interaction of treatment effect with gene expression, distant recurrence-free survival; format: in vivo, human; conditions: for H.R., treatment by gene expression interaction: placebo and TAM combined
Procedure: Endometrial cancer in TAM-treated breast cancer patients: Findings from the National Surgical Adjuvant Breast and Bowel Project (NSABP) B-14. J Natl Cancer Inst 86:527-537(1994). • 1.1 Fixed paraffin-embedded breast tumor tissue samples from up to 450 patients, who were treated at study entry with placebo alone in the B-14 study, were analyzed. For each evaluable patient, the expression of 16 cancer-related genes and 5 reference genes was quantitatively assessed by RT-PCR. […] Contralateral disease, other second primary cancers, and deaths prior to distant recurrence will be considered censoring events. […] Gene expression values were normalized relative to the mean of the reference genes. For each cancer-related gene, cycle threshold (CT) measurements were obtained by RT-PCR, and normalized relative to a set of five reference genes listed in Table 1. […] For the purpose of identifying treatment predictive genes in breast cancer, our primary objective was to explore the relation between gene expression and DRFS and OS in treated patients. For such analyses, data from both treated and untreated patient arms were utilized in order to discriminate treatment preditive genes from purely prognostic genes. For identifying treatment predictive genes for tamoxifen (TAM) response, both placebo and TAM-treated patients were included from NSABP Study B-14. In both studies, Cox proportional hazards models were utilized to examine the interaction between the treatment effect and gene expression. An interaction between treatment and gene expression exists if the treatment effect depends on the gene expression level; that is, if gene expression is a treatment predictive factor. Again, the likelihood ratio test was used to identify statistically significant predictive treatment genes by comparing the reduced model excluding the gene expression by treatment interaction versus the competing full model including the gene expression by treatment interaction.

## CC/C(=C(\c1ccccc1)c1ccc(OCCN(C)C)cc1)c1ccccc1 [TAM, tamoxifen]
[1]; high risk group by Recurrence Score
  Kaplan-Meier estimate (95% confidence interval) of rate of distant recurrence at 10 years: 30.5% (23.6%, 37.4%)
[1]; intermediate risk group by Recurrence Score
  Kaplan-Meier estimate (95% confidence interval) of rate of distant recurrence at 10 years: 14.3% (8.3%, 20.3%)
[1]; low risk group by Recurrence Score
  Kaplan-Meier estimate (95% confidence interval) of rate of distant recurrence at 10 years: 6.8% (4.0%, 9.6%)
[2]; for every two fold increase in expression of ESR1, 95% confidence limits ~12% to ~37%
  decrease of H.R. for recurrence of TAM-treated patients: about 25%
[2]; patients in the lowest quartile of ESR1 expression (FIG. 3)
  absolute benefit of TAM treatment: little benefit
[2]; patients in the lowest tertile of ESR1 expression (FIG. 2)
  absolute benefit of TAM treatment: much less impact
[2]; two-thirds of patients who express ESR1 at the highest levels (tertiles, FIG. 2)
  absolute benefit of TAM treatment: substantial absolute benefit
[2]; variable IntBCL2_2
  H.R., treatment by gene expression interaction: 0.7697
[2]; variable IntESR1 Group
  H.R., treatment by gene expression interaction: 0.7573
[2]; variable IntESR1_1
  H.R., treatment by gene expression interaction: 0.7438
[2]; variable IntSCUBE2_2
  H.R., treatment by gene expression interaction: 0.8058
[2]; variable IntTFRC_3
  H.R., treatment by gene expression interaction: 1.944

From US7622251B2, “Molecular indicators of breast cancer prognosis and prediction of treatment response” (Genomic Health, Inc., priority 2004, dated 2009)
